In patent US9562053B2, “Benzo-fused heterocyclic derivatives useful as agonists of GPR120” (Janssen Pharmaceutica NV, priority 2013, dated 2017):

What was measured:
Format in all cases: cell-based
[1] = molecular target: T1, long form of human GPR120 (Homo sapiens, UniProt Q5NUL3); experiment: Human GPR120 DiscoveRx PathHunter Beta-Arrestin Assay, Procedure β-arrestin A (3000 cells per well); conditions: read-out: GPR120 B-arrestin A EC50
T1 construct: host or cells: PathHunter CHO-K1 GPR120 β-Arrestin Cell Line
T1 sequence (Q5NUL3 1-377 isoform Q5NUL3-1): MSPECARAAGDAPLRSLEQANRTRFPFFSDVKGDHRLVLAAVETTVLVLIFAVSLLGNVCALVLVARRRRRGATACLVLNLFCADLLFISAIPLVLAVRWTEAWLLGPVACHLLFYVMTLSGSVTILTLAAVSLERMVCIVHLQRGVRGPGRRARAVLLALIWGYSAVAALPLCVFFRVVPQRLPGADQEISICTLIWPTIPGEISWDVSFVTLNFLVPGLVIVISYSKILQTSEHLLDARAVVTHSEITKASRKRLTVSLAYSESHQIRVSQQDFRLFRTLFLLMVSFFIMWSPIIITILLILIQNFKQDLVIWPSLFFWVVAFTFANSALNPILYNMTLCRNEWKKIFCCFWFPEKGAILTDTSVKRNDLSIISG
Description: (§1) The binding of an agonist (medium/long chain fatty acids or small molecule agonists) to the G-protein-coupled receptor GPR120 activates phospholipase C, leading to release of intracellular Ca^+2 through the generation of inositol 1,4,5-trisphosphate (InsP3 or IP3). GPR120 activation can also trigger intracellular signaling via recruitment of β-Arrestin. In the present method, agonist-induced activation of the human GPR120 receptor is monitored through the use of PathHunter CHO-K1 GPR120 β-Arrestin Cell Line engineered by DiscoveRx, as detailed below. The cell lines are designed to co-express both the ProLink/Enzyme Donor (PK)-tagged GPCR and the Enzyme Activator (EA)-tagged β-Arrestin fusion proteins. Upon GPR120 receptor stimulation/activation, the EA-tagged β-Arrestin portion is translocated to the tagged receptor, where the two enzyme fragments are brought within close proximity. Under these conditions, these fragments can interact and form an active Beta-gal enzyme complex through Enzyme Fragment Complementation (EFC). This active Beta-gal complex can enzymatically hydrolyse the substrate to produce a detectable light signal; therefore, activation as a function of agonist concentration can be expressed as an EC50 value to determine relative compound activities. This in vitro assay therefore serves to assess compound agonist activity of the GPR120.
In Procedure β-arrestin A, the cell used were PathHunter CHO-K1 GPR120 β-Arrestin Cell Line, expressing the long form of human GPR120 (Genbank accession number NM_181745), with 3000 cells per well.
(§2) The selected CHO-K1 GPR120 β-Arrestin cells were cultured in Ham's F12 media supplemented with 10% fetal bovine serum (FBS), 1% Glutamine, 1×p/s, 800 μg/ml G418 and 300 μg/ml Hygromycin B (for selection). Cell stocks were maintained and grown in a sub-confluent state using standard cell culture procedures. The day before the experiment, the cells were harvested with non-enzymatic cell dissociation buffer and re-suspended in complete growth media at the desired concentration. A Corning 384-plate was then seeded with the proper number of cells in a volume of 25 μL, per well. The seeded plates were incubated overnight at 37° C.
(§3) On the day of the experiment, the Assay Buffer containing (a) HBSS with Ca^++ and Mg^++, (b) 20 mM HEPES, and (c) 0.1% BSA stabilizer (pH 7.4) was prepared. The growth medium was gently removed from the cell plates and 20 μL of Assay Buffer added to each well. The plate was then incubated at 37° C. for 60 mins. Test compounds were serially diluted in Assay Buffer to desired concentrations (more particularly, to one or more of the following μM concentrations: 25 μM, 12.5 μM, 6.25 μM, 3.125 μM, 1.562 μM, 0.781 μM, 0.391 μM, 0.195 μM, 0.098 μM, 0.049 μM, 0.024 μM, 0.012 μM). Five μl of compound dilution was then added to each well and the plate incubated at 37° C. for 90 mins. The detection reagents were prepared according to the manufacture's instruction. Twelve μL of the detection reagents were added to each well and the plate incubated at room temperature for 60 mins.
(§4) The plates were read on an EnVision instrument, using Protocol name: Luminescence, Plate type: 384 Costar, Measurement height: 3 mm, Measurement time: 1 s, Aperture: 384 Plate aperture. The % activity relative to the positive control was calculated using the following equation:
(§5) The % Activity values were plotted versus the concentration of test compound and fitted to a sigmoidal dose-response curve with a Hill slope=1 (fixed value) using nonlinear regression with GraphPad Prism 5.0 to calculate the EC50 values. The Fitting Equation was: Y=Bottom+(Top−Bottom)/(1+10^((LogEC50−X)*HillSlope)), where X is the log of the concentration and Y is the response.

[2] = molecular target: T2, short form of the GPR120 receptor (Homo sapiens, UniProt Q5NUL3); experiment: Human GPR120 DiscoveRx PathHunter Beta-Arrestin Assay, Procedure β-arrestin B (5000 cells/well)
T2 construct: host or cells: PathHunter CHO-K1 GPR120S β-Arrestin Cell Line
T2 sequence (Q5NUL3 1-361): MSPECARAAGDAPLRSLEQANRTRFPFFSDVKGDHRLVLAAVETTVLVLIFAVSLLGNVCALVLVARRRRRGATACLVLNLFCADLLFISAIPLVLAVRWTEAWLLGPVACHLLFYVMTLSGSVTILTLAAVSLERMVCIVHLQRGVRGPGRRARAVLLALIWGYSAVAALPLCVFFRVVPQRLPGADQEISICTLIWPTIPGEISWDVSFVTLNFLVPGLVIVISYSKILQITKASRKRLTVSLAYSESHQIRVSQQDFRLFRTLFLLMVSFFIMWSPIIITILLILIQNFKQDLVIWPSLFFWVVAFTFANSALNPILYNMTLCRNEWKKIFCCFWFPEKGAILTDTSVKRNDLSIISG
Description: as §1
In Procedure β-arrestin B the cells used were PathHunter CHO-K1 GPR120S β-Arrestin Cell Line, expressing the short form of the GPR120 receptor (Accession #NM_181745), with 5000 cells/well.
as §2, §3, §4, §5

Human GPR120 short form = molecular target: T3, Human GPR120 short form (Homo sapiens, UniProt Q5NUL3); experiment: Human GPR120 in Calcium Flux Assay, Procedure Calcium A (2500 cells/well)
T3 construct: expressed in transfected cells
T3 sequence (Q5NUL3 1-361): T2 sequence (Q5NUL3 1-361)
Description: This in vitro assay serves to assess test compound agonist activity against the short splice variant (SVS with Accession number NM_001195755.1 confirmed by sequencing data) of the GPR120 receptor. The Human Short splice variant #2 (NM_001195755.1) is missing an in-frame coding exon compared to variant 1 (the Human Long splice variant NM_181745.3), resulting in a shorter isoform (GPR120-S) lacking a 16 aa protein segment compared to isoform GPR120-L. The assay platform utilizes HEK-293 cells stably transfected to express the Human GPR120 short form. These cells are first loaded with the Ca^+2 sensitive dye, Fluo-4 NW. Upon stimulation, intracellular released Ca^+2 can bind to the dye and alter its fluorescence intensity. This increase in fluorescence signal, and thus the flux in intracellular [Ca^+2], is detected and quantitated by fluorescence imaging using a FLIPR reader. The effect of the agonist is measured as a function of concentration and used to calculate an EC50 based upon a response curve.
In this procedure 2500 cells/well were employed.
A Human GPR120 clone (Genbank accession number NM_001195755.1) was placed into the pcDNA3.1 mammalian expression vector carrying the neomycin resistance gene. A stable mammalian cell was generated by placing the above clone into a HEK293 background. Clonal cells responding to long chain fatty acids had expression levels of GPR120 confirmed by RT-qPCR. Human HEK-GPR120 cells were cultured in Dulbecco's Modified Eagle's Medium (DMEM)/F12 medium supplemented with 10% fetal bovine serum (FBS), 1% L-Glutamine and 1% penicillin/streptomycin and 0.5 mg/ml G-418. Cells were split 2 times a week to keep the cells in the log-phase growth.
In preparation for the assay, HEK cells stably transfected with Human GPR120 (2.5K cells per well in 25 uL growth medium) were seeded into 384-well plates and then incubated overnight (37° C., 5% CO2). The next day, the media was changed to 20 μl assay buffer and the cell starved for 1 h at 37° C. The dye loading solution (2× dye) was prepared using 10 ml assay buffer, 100 μl of 250 mM probenecid, 1 bottle of Component A, and 20 μl of dye in DMSO. Twenty μl of the 2× dye loading buffer was then added to each well. The plates were incubated at 37° C. for 30 min, then at room temperature for an additional 15 minutes, before performing the assay on FLIPR.
Test compounds were prepared in assay buffer (2 μl of test compound+198 μl assay buffer, final DMSO in assay plate is 0.2%) at the desired concentration, more particularly at 100 μM, 50 μM, 25 μM, 12.5 μM, 6.25 μM, 3.125 μM, 1.562 μM, 0.781 μM, 0.391 μM, 0.195 μM, 0.098 μM, 0.049 μM, 0.024 μM and 0.012 μM.
The assay was performed on a FLIPR plate reader using the following parameters. Baseline was read for 10 seconds at 1 sec intervals. The program was set to transfer 10 μL of ligand from compound plate to cell plate after baseline reading. Aspiration was executed at: 10 μl/sec speed, 4.6 μl height; Dispensing was executed at: 30 μl/sec speed, 45 μl height. After compound addition, each well was read for 300 sec, with measurements collected at 1 sec intervals.
The kinetic data from the FLIPR was based upon a 5 minute window for data collection. The fluorescence of each sample well was used for individual calculations of a normalized RFU value, which was defined as maximum response minus the minimum response. The normalized fluorescence reading (RFU) was calculated as follows: RFU=Fmax−Fmin
The data were fitted to a sigmoidal dose-response curve with a variable Hill slope (<2) using nonlinear regression with GraphPad Prism 5.0 to calculate the EC50 values. The Fitting Equation was: Y=Bottom+(Top−Bottom)/(1+10^((LogEC50−X)*HillSlope)), where X is the log of the concentration and Y is the response.

| SMILES | EC50 [1] | EC50 [2] | EC50 (Human GPR120 short form) |
| --- | --- | --- | --- |
| Cc1oc2cccc(COc3ccc(CCC(=O)O)c(F)c3F)c2c1C [Compound 1, 3-{4-[(2,3-Dimethyl-1-benzofuran-4-yl)methoxy]-2,3-difluorophenyl}propanoic acid] | > 20 µM | – | – |
| CCCc1cc2cc(C(C)(F)F)cc(COc3ccc(CCC(=O)O)c(C)c3C)c2o1 [Compound 79, 3-(4-{[5-(1,1-Difluoroethyl)-2-propyl-1-benzofuran-7-yl]methoxy}-2,3-dimethylphenyl)propanoic acid] | 2.22 µM | – | – |
| Cc1cc2cc(OC(F)(F)F)cc(COc3ccc(CCC(=O)O)c(C(F)(F)F)c3)c2o1 [Compound 112, 3-[4-{[2-Methyl-5-(trifluoromethoxy)-1-benzofuran-7-yl]methoxy}-2-(trifluoromethyl)phenyl]propanoic acid] | – | 110 nM | 121 nM |
| Cc1cc2c(COc3ccc(CCC(=O)O)c(F)c3F)cccc2o1 [Compound 6, 3-{2,3-Difluoro-4-[(2-methyl-1-benzofuran-4-yl)methoxy]phenyl}propanoic acid] | > 20 µM | – | – |
| Cc1c(CCC(=O)O)ccc(OCc2cc(F)cc3sc(CC(C)C)nc23)c1C [Compound 115, 3-(4-{[6-Fluoro-2-(2-methylpropyl)-1,3-benzothiazol-4-yl]methoxy}-2,3-dimethylphenyl)propanoic acid] | – | 772 nM | 468 nM |

Now from value to compound:

| EC50 [1] | EC50 [2] | EC50 (Human GPR120 short form) | SMILES |
| --- | --- | --- | --- |
| – | 237 nM | 65 nM | Cc1nc2c(COc3ccc(CCC(=O)O)c(C)c3C)cc(OC(F)(F)F)cc2s1 [Compound 118, 3-(2,3-Dimethyl-4-{[2-methyl-6-(trifluoromethoxy)-1,3-benzothiazol-4-yl]methoxy}phenyl)propanoic acid] |
| – | 681 nM | 422 nM | Cc1c(CCC(=O)O)ccc(OCc2cc(F)cc3sc(C(F)(F)F)nc23)c1C [Compound 117, 3-(4-{[6-Fluoro-2-(trifluoromethyl)-1,3-benzothiazol-4-yl]methoxy}-2,3-dimethylphenyl)propanoic acid] |
| – | 1190 nM | 382 nM | Cc1nc2cc(Cl)cc(COc3ccc(CCC(=O)O)c(C)c3C)c2s1 [Compound 121, 3-{4-[(5-Chloro-2-methyl-1,3-benzothiazol-7-yl)methoxy]-2,3-dimethylphenyl}propanoic acid] |
| – | 1440 nM | – | Cc1c(CCC(=O)O)ccc(OCc2cc(Cl)cc3sc(C(F)(F)F)nc23)c1C [Compound 119, 3-(4-{[6-Chloro-2-(trifluoromethyl)-1,3-benzothiazol-4-yl]methoxy}-2,3-dimethylphenyl)propanoic acid] |
